Assay results as given in patent US20250381165A1, “Method of Use for Benzofuran Compounds” (Tampa Bay Research Institute, Inc., priority 2024, published 2025).

Columns and labels:
[1] = tested on: B3Z cells; experiment: Direct treatment of B3Z cells; assay type: cell-based, murine; conditions: BzFβ alone; data not shown
[2] = tested on: murine splenocytes (B3Z activation); experiment: B3Z activation by murine splenocytes (OVA or SIINFEKL); assay type: cell-based
Procedure: (§1) Murine splenocytes were plated at a density of 2.5 or 5×10^4 cells/well (100 μL/well in 96 well plates) and cultured overnight in cRPMI. The cells were washed with DPBS and then treated for 1-24 h with the indicated concentrations of BzFβ or co-treated with the indicated concentrations of BzFβ and 0.5 mg/mL OVA, suspended in complete media. Cells treated with BzFβ only were pulsed with 0.5 nM SIINFEKL pulsed for 1 h. The cells were then co-cultured with equal number of B3Z cells at 37° C. for 19 h.

[3] = tested on: B16F10 cells (B3Z activation); experiment: B3Z activation by B16F10 (OVA or SIINFEKL); assay type: cell-based, murine
Procedure: as §1, with “B16F10 were” for “Murine splenocytes were”, “in cDMEM.” for “in cRPMI.”, “and 1.0” for “and 0.5”, “with 2” for “with 0.5”
In this experiment the activity of the dipeptide, GL, was also examined, as it has been previously reported to function as a peptide exchange factor. (Saini, et al., Dipeptides catalyze rapid peptide exchange on MHC class I molecules. Proc Natl Acad Sci USA. 2015 Jan. 6; 112(1):202-7; Saini, et al., Empty peptide-receptive MHC class I molecules for efficient detection of antigen-specific T cells. Sci Immunol. 2019 Jul. 19; 4(37):eaau9039). B16F10 were plated at a density of 2.5 or 5×10^4 cells/well (100 μL/well in 96 well plates) and cultured overnight in cDMEM. The cells were washed with DPBS and then co-treated for 24 h with 10 mM (1.88 mg/mL) of GL and 1.0 mg/mL OVA or were pulsed with 2 nM SIINFEKL for 1 h following treatment with 10 mM GL in complete media. The cells were then co-cultured with an equal number of B3Z cells at 37° C. for 19 h.

[4] = tested on: E.G7-OVA cells (B3Z activation); experiment: B3Z activation by E.G7-OVA cells; assay type: cell-based, murine
Procedure: Activation of B3Z T cell hybridoma cells was assessed following their exposure to various MHC class I H-2K^b positive cell lines presenting the SIINFEKL peptide. To stimulate β-gal production in the B3Z, the H-2Kb murine cell lines, DC2.4 and E.G7-OVA were plated at a density of 2.5 or 5×10^4 cells/well (100 μL/well in 96 well plates) and cultured overnight at 37° C. in an atmosphere containing 5% CO2 and 95% humidity. The cells were washed with DPBS and then treated for 1-24 h with the indicated concentrations of BzFβ suspended in complete media. Vehicle controls were always included. Cells being examined for the uptake and processing of soluble OVA were co-treated with BzFβ and 0.5 mg/mL grade V chicken ovalbumin for 6-24 h, and then washed and cocultured with B3Z as indicated.
Following the pretreatment with BzFβ, the media was removed from adherent cells (DC2.4 or B16F10) or was removed following pelleting of nonadherent cells in the plate. The cells were then pulsed with various concentrations of SIINFEKL peptide (typically 0.5 nM was used) for the indicated lengths of time (typically 1 h). The cells were washed and then 100 μL of complete DMEM containing 5×10^4 B3Z cells was added. […] The absorbance at 560 nm (700 nm for background) was intermittently monitored using a BioTek Synergy HTX multimode microplate reader (Winooski, VT) to detect β-gal activity. […]

[5] = target: T1, MHC class I H-2Kb tetramer (Mus musculus, UniProt P01901); experiment: QuickSwitch tetramer peptide exchange assay, H-2Kb; assay type: biochemical, murine; conditions: p<0.001; p=0.0013
T1 construct: purchased MBL International Corporation TB-7400-K2
T1 sequence (P01901 22-295 limits assumed): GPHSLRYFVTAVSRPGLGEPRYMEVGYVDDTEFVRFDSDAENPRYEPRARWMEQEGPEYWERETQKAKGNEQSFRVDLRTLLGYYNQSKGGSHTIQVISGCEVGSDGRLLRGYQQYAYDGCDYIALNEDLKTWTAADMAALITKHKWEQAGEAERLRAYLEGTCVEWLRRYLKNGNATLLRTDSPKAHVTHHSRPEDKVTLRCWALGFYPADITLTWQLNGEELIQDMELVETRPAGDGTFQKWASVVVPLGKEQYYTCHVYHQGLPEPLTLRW
T1 sequence (P61769 21-119 partner): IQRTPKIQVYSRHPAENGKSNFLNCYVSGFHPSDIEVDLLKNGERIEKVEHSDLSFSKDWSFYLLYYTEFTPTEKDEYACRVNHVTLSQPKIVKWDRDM

## O=C(O)/C=C/c1ccc2occc2c1 [BzFβ, (2E)-3-(1-benzofuran-5-yl)prop-2-enoic acid]
[1]
  effect of direct treatment on B3Z viability or activation: no effect on cell viability or cell activation
[2]; co-treatment 24 h, 0.5 mg/mL OVA
  ability of splenocytes to activate B3Z, OVA: enhanced their ability to activate B3Z
[2]; pre-treatment 24 h, then 0.5 nM SIINFEKL 1 h
  ability of splenocytes to activate B3Z, SIINFEKL: also enhanced their ability to activate the B3Z
[2]; splenocytes, 0.5 mg/mL OVA, p<0.0001
  doses with significant enhancement of B3Z activation, OVA: > 6.25 µg/mL
[2]; splenocytes, 24 h, 0.5 nM SIINFEKL 1 h, p<0.0001
  doses with significant enhancement of B3Z activation, SIINFEKL: > 12.5 µg/mL
[3]; co-treatment with 1 mg/mL OVA, GL at 10 mM
  B3Z activation by B16F10, OVA: failed to activate the B3Z cells
[3]; pre-treatment, 1 h pulse 2 nM SIINFEKL, BzFβ 25, 50 μg, GL 10 mM
  B3Z activation by B16F10, SIINFEKL: significantly activate B3Z
[4]; 0-100 μg/mL BzFβ
  ability of E.G7-OVA cells to activate B3Z: dose-dependently reduced
[4]; E.G7-OVA, B3Z assay
  lowest dose with significant effect: 6.25 µg/mL
[5]
  displacing pre-bound peptide versus no exchange factor or provided exchange molecule: significantly better
